Drawing on US6297267A, “4,5-diaryloxazole compounds” (Fujisawa Pharmaceutical Co., Ltd., priority 1997, dated 2001), this text covers inhibition for three molecules.

Structures are written as SMILES.

In this assay the test system is Human Platelet. Nature of the assay: Inhibition of Human Platelet Aggregation Induced by ADP. Type of assay: cell-based. The conditions noted are these: 2 min; Test Compound 1.0 × 10^-7 M; human platelet rich plasma; ADP 2.5 μM; 2 minutes at 37° C. Here is the method:
Inhibition of Human Platelet Aggregation Induced by ADP
Human blood was collected from healthy volunteers and mixed with 1/10 volume of 3.8% sodium citrate solution, pH 7.4. The citrate blood was centrifuged at 150×g for 10 minutes and the platelet rich plasma (PRP) was removed. The remaining blood was centrifuged for a further 10 minutes at 1500×g to prepare the platelet poor plasma (PPP), which was used as a reference for platelet aggregation. Aggregation studies were carried out using HEMATRACER 801 (NBS, Japan), a 8 channel aggregometer. 25 μl of a solution of Test compound in Tris-acetate buffer pH 7.4 and 225 μl of PRP were mixed and stirred at 1000 rpm for 2 minutes at 37° C. Aggregation was induced by ADP (adenosin 5'-diphosphate) solution at the final concentration of 2.5 μM.
The term inhibition denotes the relative decrease from the control value, in per cent. Lower therefore signals little suppression. `O=C(O)COc1cccc(CC2(O)CCCC=C2c2nc(-c3ccccc3)c(-c3ccccc3)o2)c1` (stereo not drawn) [(1)]: the inhibition at 0.1 µM is > 90%. Then `O=C(O)COc1cccc(C[C@@H]2CCC(O)C=C2c2nc(-c3ccccc3)c(-c3ccccc3)o2)c1` (stereo partly drawn) [(2)], with > 90%; and `O=C(O)COc1cccc(C[C@@H]2CCCC3OC32c2nc(-c3ccccc3)c(-c3ccccc3)o2)c1` (stereo partly drawn) [(3)], with > 90%.
